This note sets out measurements from patent US5622962A, “5α-reductase inhibitors” (priority 1995, dated 1997).

In this experiment the target is T1, Type II 5α-Reductase from Human Prostate (Homo sapiens, UniProt P31213).
T1 construct: The same procedure as above was used for preparations using tissue from prostate surgery; from tissue; host or cells: human prostate tissue from surgery, homogenate, 100,000×g pellet
T1 sequence (P31213 1-254): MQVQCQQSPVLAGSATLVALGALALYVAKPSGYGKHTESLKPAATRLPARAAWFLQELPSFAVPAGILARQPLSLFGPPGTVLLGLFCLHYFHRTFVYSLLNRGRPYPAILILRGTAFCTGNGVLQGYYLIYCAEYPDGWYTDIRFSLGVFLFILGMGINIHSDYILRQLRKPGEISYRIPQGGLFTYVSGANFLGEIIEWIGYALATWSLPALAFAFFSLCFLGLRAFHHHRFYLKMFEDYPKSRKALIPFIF
Put plainly: Human Type II 5α-reductase assay (conversion of [3H]-testosterone to 5α-reduced metabolites). The experiment is classed as biochemical. To be noted: pH 5.5, 0.3 μM; sodium acetate pH 5.5, 25°, 30 min; compared to control reaction mixtures; read-out: percent inhibition of Type II AR.
Broadly, the inhibition is how much of the control response was suppressed. Turning to `CN1C(=O)CC[C@]2(C)c3ccc(-c4ccc5c(c4)CCC5O)cc3CC[C@@H]12` (single isomer, unassigned; (+)) [Example 245], the inhibition at 0.3 µM worked out at 44%.

As to `C[C@]12CCC(=O)N[C@@H]1CCc1cc(Sc3ccccc3)ccc12` [Example 22, (4aR)-(10bR)-8-phenylthio-10b-methyl-1,2,3,4,4a,5,6,10b-octahydrobenzo[f]quinolin-3-one], the inhibition at 0.3 µM is 19%.

On to `COc1ccc(-c2ccc3c(c2)CC[C@H]2N(C)C(=O)CC[C@]32C)cc1OC` [Example 42, (+)-(4 aR)-(10bR)-4-methyl-8-(3,4-dimethoxyphenyl)-10b-methyl-1,2,3,4,4a,5,6,10b-octahydrobenzo[f]quinolin-3-one], for which the inhibition at 0.3 µM came to 32%. Regarding `CN1C(=O)CC[C@]2(C)c3ccc(-c4cccc(F)c4)cc3CC[C@@H]12` [Example 44, (+)-(4aR)-(10bR)-4-methyl-8-(3-fluorophenyl)-10b-methyl-1,2,3,4,4a,5,6,10b-octahydrobenzo[f]quinolin-3-one], the inhibition at 0.3 µM came to 27%. For `C[C@]12CCC(=O)N[C@@H]1CCc1cc(-c3cnc4ccccc4c3)ccc12` [Example 45, (+)-(4aR)-(10bR)-8-(3-quinolinyl)-10b-methyl-1,2,3,4,4a,-5,6,10b-octahydrobenzo[f]quinolin-3-one] the value was 45%; for `COc1ccc(-c2ccc3c(c2)CC[C@H]2N(C)C(=O)CC[C@]32C)cc1` [Example 47, (+)-(4aR)-(10bR)-4-methyl-8-(4-methoxyphenyl)-10b-methyl-1,2,3,4,4a,5,6,10b-octahydrobenzo[f]quinolin-3-one], 16%; for `COc1cccc(-c2ccc3c(c2)CC[C@H]2N(C)C(=O)CC[C@]32C)c1` [Example 48, (+)-(4aR)-(10bR)-4-methyl-8-(3-methoxyphenyl)-10b-methyl-1,2,3,4,4a,5,6,10b-octahydrobenzo[f]quinolin-3-one], 12%. The same measure for `CN1C(=O)CC[C@]2(C)c3ccc(-c4cccnc4)cc3CC[C@@H]12` [Example 54, (+)-(4aR)-(10bR)-4-methyl-8-(3-pyridyl)-10b-methyl-1,2,3,4,4a,5,6,10b-octahydrobenzo[f]quinolin-3-one]: 22%. For `CN1C(=O)CC[C@]2(C)c3ccc(-c4cccc(C=O)c4)cc3CC[C@@H]12` [Example 57, (+)-(4aR)-(10bR)-4-methyl-8-(3-formylphenyl)-10b-methyl-1,2,3,4,4a,5,6,10b-octahydrobenzo[f]quinolin-3-one] the value was 20%. On to `CN(C)c1ccc(-c2ccc3c(c2)CC[C@H]2N(C)C(=O)CC[C@]32C)cc1` [Example 59, (+)-(4aR)-(10bR)-4-methyl-8-(4-dimethylaminophenyl)-10b-methyl-1,2,3,4,4a,5,6,10b-octahydrobenzo[f]quinolin-3-one], for which the inhibition at 0.3 µM is 31%. For `CN1C(=O)CC[C@]2(C)c3ccc(-c4ccc5cc(O)ccc5c4)cc3CC[C@@H]12` [Example 60, (+)-(4aR)-(10bR)-4-methyl-8-(2-[6-hydroxy]naphthyl)-10b-methyl-1,2,3,4,4a,5,6,10b-octahydrobenzo[f]quinolin-3-one] the value was 42%; for `CN1C(=O)CC[C@]2(C)c3ccc(-c4cccc(Cl)c4)cc3CC[C@@H]12` [Example 63, (+)-(4aR)-(10bR)-4-methyl-8-(3-chlorophenyl)-10b-methyl-1,2,3,4,4a,5,6,10b-octahydrobenzo[f]quinolin-3-one], 19%; for `CN1C(=O)CC[C@]2(C)c3ccc(-c4ccc5c(c4)OCO5)cc3CC[C@@H]12` [Example 70, (+)-(4aR)-(10bR)-4-methyl-8-(3,4-methylenedioxyphenyl)-10b-methyl-1,2,3,4,4a,5,6,10b-octahydrobenzo[f]quinolin-3-one], 36%.

Turning to `CN1C(=O)CC[C@]2(C)c3ccc(-c4ccc(OC(F)(F)F)cc4)cc3CC[C@@H]12` [Example 78, (+)-(4aR)-(10bR)-4-methyl-8-(4-trifluoromethoxyphenyl)-10b-methyl-1,2,3,4,4a,5,6,10b-octahydrobenzo[f]quinolin-3-one], the inhibition at 0.3 µM is 3%.

`CN1C(=O)CC[C@]2(C)c3ccc(-c4ccc(C(F)(F)F)cc4)cc3CC[C@@H]12` [Example 79, (+)-(4aR)-(10bR)-4-methyl-8-(4-trifluoromethylphenyl)-10b-methyl-1,2,3,4,4a,5,6,10b-octahydrobenzo[f]quinolin-3-one]: the inhibition at 0.3 µM stood at 34%. For `Cc1cc(C)cc(-c2ccc3c(c2)CC[C@H]2N(C)C(=O)CC[C@]32C)c1` [Example 83, (+)-(4aR)-(10bR)-4-methyl-8-(3,5-dimethylphenyl)-10b-methyl-1,2,3,4,4a,5,6,10b-octahydrobenzo[f]quinolin-3-one] the value was 12%.

For the molecule `CN1C(=O)CC[C@]2(C)c3ccc(-c4ccc(F)cc4)cc3CC[C@@H]12` [Example 85, (+)-(4aR)-(10bR)-4-methyl-8-(4-fluorophenyl)-10b-methyl-1,2,3,4,4a,5,6,10b-octahydrobenzo[f]quinolin-3-one], the inhibition at 0.3 µM is 12%. For `CCOc1ccc(-c2ccc(-c3ccc4c(c3)CC[C@H]3N(C)C(=O)CC[C@]43C)cc2)cc1` [Example 89, (+)-(4aR)-(10bR)-4-methyl-8-(4-[4-ethoxy]biphenyl)-10b-methyl-1,2,3,4,4a,5,6,10b-octahydrobenzo[f]quinolin-3-one] the value was 15%. The same measure for `CN1C(=O)CC[C@]2(C)c3ccc(-c4cccc(N)c4)cc3CC[C@@H]12` [Example 90, (+)-(4aR)-(10bR)-4-methyl-8-(3-aminophenyl)-10b-methyl-1,2,3,4,4a,5,6,10b-octahydrobenzo[f]quinolin-3-one]: 22%; for `C[C@]12CCC(=O)N[C@@H]1CCc1cc(-c3cccc4ccccc34)ccc12` [Example 92, (+)-(4aR)-(10bR)-8-(1-naphthyl)-10b-methyl-1,2,3,4,4a,5,6,10b-octahydrobenzo[f]quinolin-3-one]: 10%. For `C[C@]12CCC(=O)N[C@@H]1CCc1cc(-c3cccc([N+](=O)[O-])c3)ccc12` [Example 93, (+)-(4aR)-(10bR)-8-(3-nitrophenyl)-10b-methyl-1,2,3,4,4a,5,6,10b-octahydrobenzo[f]quinolin-3-one] the value was 9%; for `CN1C(=O)CC[C@]2(C)c3ccc(-c4ccc(Cl)cc4Cl)cc3CC[C@@H]12` [Example 94, (+)-(4aR)-(10bR)-4-methyl-8-(2,4-dichlorophenyl)-10b-methyl-1,2,3,4,4a,5,6,10b-octahydrobenzo[f]quinolin-3-one], 1%; for `CN1C(=O)CC[C@]2(C)c3ccc(Sc4ccccc4)cc3CC[C@@H]12` [Example 116, (4aR)-(10bR)-4,10b-dimethyl-8-phenylthio-1,2,3,4, -4a,5,6,10b-octahydrobenzo[f]quinolin-3-one], 24%. For `CN1C(=O)CC[C@]2(C)c3ccc(-c4ccc(C#N)cc4)cc3CC[C@@H]12` [Example 121, (+)-(4aR)-(10bR)-4-methyl-8-(4-cyanophenyl)-10b-methyl-1,2,3,4,4a,5,6,10b-octahydrobenzo[f]quinolin-3-one], the inhibition at 0.3 µM came out at 41%. For `CC(C)C(=O)c1ccc(-c2ccc3c(c2)CC[C@H]2N(C)C(=O)CC[C@]32C)cc1` [Example 122, (+)-(4aR)-(10bR)-4-methyl-8-(4-[isopropylcarbonyl]phenyl)-10b-methyl-1,2,3,4,4a,5,6,10b-octahydrobenzo[f]quinolin-3-one] the value was 36%; for `CSc1ccccc1-c1ccc2c(c1)CC[C@H]1N(C)C(=O)CC[C@]21C` [Example 127, (+)-(4aR)-(10bR)-4-methyl-8-(2-methylthiophenyl)-10b-methyl-1,2,3,4,4a,5,6,10b-octahydrobenzo[f]quinolin-3-one], 40%. Consider `C[C@]12C=CC(=O)N[C@@H]1CCc1cc(-c3cccc4ccccc34)ccc12` [Example 140, (+)-(4aR)-(10bR)-8-(1-naphthyl)-10b-methyl-3,4,4a,5,6,10b-hexahydrobenzo[f]quinolin-3-one], for which the inhibition at 0.3 µM turned out to be 20%. As for `C[C@]12C=CC(=O)N[C@@H]1CCc1cc(-c3cccc([N+](=O)[O-])c3)ccc12` [Example 141, (+)-(4aR)-(10bR)-8-(3-nitrophenyl)-10b-methyl-3,4,4a,5,6,10b-hexahydrobenzo[f]quinolin-3-one], the inhibition at 0.3 µM is 19%. Take `C[C@]12CCC(=O)N[C@@H]1CCc1cc(-c3cc(C(F)(F)F)nc4c(C(F)(F)F)cccc34)ccc12` [Example 197, (+)-(4aR)-(10bR)-8-(4-[2,8-bistrifluoromethyl]quinolinyl)-10b-methyl-1,2,3,4,4a,5,6,10b-octahydrobenzo[f]quinolin-3-one]: the inhibition at 0.3 µM stood at 37%.

Consider `C[C@]12CCC(=O)N[C@@H]1CCc1cc(-c3nccs3)ccc12` [Example 198, (+)-(4aR)-(10bR)-8-(2-thiazolyl)-10b-methyl-1,2,3,4,4a,-5,6,10b-octahydrobenzo[f]quinolin-3-one], for which the inhibition at 0.3 µM worked out at 7%. For `C[C@]12CCC(=O)N[C@@H]1CCc1cc(-c3ccc([N+](=O)[O-])cn3)ccc12` [Example 199, (+)-(4aR)-(10bR)-8-(5-nitro-2-pyridinyl)-10b-methyl-1,2,3,4,4a,5,6,10b-octahydrobenzo[f]quinolin-3-one] the value was 30%; for `CN1C(=O)CC[C@]2(C)c3ccc(NC(=O)c4cccc([N+](=O)[O-])c4)cc3CC[C@@H]12` [Example 268, (+)-(4aR)-(10bR)-4,10b-dimethyl-8-(3-nitrobenzoylamino)-1,2,3,4,4a,5,6,10b-octahydrobenzo[f]quinolin-3-one], 18%.
